# According to patent EP0491828B1, “PEPTIDES FROM GTPase-ACTIVATING PROTEIN (GAP), DIAGNOSTIC AND THERAPEUTIC USE THEREOF” (CHIRON CORPORATION, priority 1989, dated 1999):
# Tests used:
# [1] = tested on: ras p21 protein; assay: Filter assay of GTP hydrolysis by ras p21 protein (32-P gamma-GTP), with and without GAP; format: biochemical; conditions: in the presence and absence of GAP; 30 minutes at room temperature
# Procedure: The above four peptides, in the following two experiments, were tested for their abilities to inhibit the hydrolysis of GTP by ras p21 protein, in the presence and absence of GAP. The first experiment involved peptides G65, G73 and 891. It was carried out as follows: purified wild type ras p21 protein was incubated with 0.25 µM 32-P gamma-GTP in 100 mM NaPO4, pH 6.8, 0.5 mM DTT, 0.5 mM EDTA, 0.005% Na cholate, and 0.5 mg/ml BSA for 15 minutes at 30°C. The mixture was then diluted ten fold with TNM buffer (comprising 20 mM Tris-HCl, pH 7.0, 100 mM NaCl, 5 mM MgCl2). 20 µl (0.05 µg of p21) of this mixture was then combined with 2 µl of the peptide in 25 mM NaOAc, pH 5.5 and incubated for 5 minutes at room temperature. The GAP assay, was initiated by the addition of 12 ng GAP in 5 µl TNM buffer with 1 mg/ml BSA or 5 µl TNM BSA buffer for the GAP independent reactions, and the resulting mixture was incubated for 30 minutes at room temperature. The samples were then filtered through nitrocellulose membranes and washed three times with cold TNM. The filters were dried and their radioactivity counted. […] In the presence of GAP, the radioactive ras p21-GTP complex is hydrolyzed to GDP and ras p21 protein, thus reducing the resulting amount of radioactive p21-GTP bound to the filter and consequently, the radioactive counts detected. […]
# [2] = tested on: ras p21 protein; assay: GDP/GTP ratio assay of p21-GTP hydrolysis (alpha-32-P-GTP, PEI cellulose chromatography), with and without GAP; format: biochemical; conditions: in the presence of GAP; control peptide, no concentration stated
# Procedure: Another experiment comparing the efficacy of cGAP 13 and peptide 891 in preventing the hydrolysis of GTP was carried out as follows. The assay measured the ratio of GDP formed resulting from the hydrolysis of GTP to the remaining GTP in the assay solution. Peptides 891, cGAP 13, and G65 were separately tested in the presence and absence of GAP, Peptide G65, which served as a control, and α-32-P-GTP were used.
# The assay was carried out as follows. The p21-GTP was diluted at a ratio of 1 to 10 in an assay buffer consisting of TNM at pH 7.0, 1mM DTT, and 100 µM GTP. A mixture consisting of 20 λ of p21 at 0.25 µM, and 2 λ of the peptide (in TNM, 1mM DTT and 100 µM GTP) was prepared. To this mixture was added 5 λ, i.e. 12ng of GAP diluted in TNM and 1 mg/ml BSA; for experiments without GAP, 5λ TNM/BSA were added instead. The resulting mixture was incubated for 30 minutes at room temperature. The reaction was stopped and the nucleotides were eluted from ras p21 protein with 2% SDS, 40 mM EDTA at 65°C for 5 minutes. The nucleotides were chromatographed on PEI Cellulose in 1M LiCl. GTP and GDP spots were visualized with autoradiography and identified by means of standard solutions. The individual spots from the PEI cellulose plates were scraped and the radioactivity counted.
Substance,hydrolysis of GTP by ras p21 protein (radioactive counts per minute of ras p21-GTP complex on filter) [1],hydrolysis of p21-GTP (ratio of radioactive counts of GDP over GTP) [2]
"peptide G65: synthetic peptide corresponding to positions 876-890 of the full length GAP; served as a control (CLQKSVQHKWPTNTT; UniProt P20936 876-890, looked up, fragment)",do not affect the hydrolysis of GTP,exhibits no inhibitory effect on p21-GTP hydrolysis
"peptide G73: synthetic peptide corresponding to positions 975-990 of the full length GAP (GNVPELPDTTEHSRTD; UniProt P20936 975-990, looked up, fragment)",do not affect the hydrolysis of GTP,
